{"source": "patent US8278291B1", "about": "“Treatment of wrinkles and strias with 4-hydroxyandrostenedione or a derivative thereof” (Curadis GmbH, priority 1999, dated 2012)", "origin": "cited, not measured here", "key": {"[1]": {"details": "applied to the head of monkeys over 27 weeks, versus untreated individuals, Rittmaster 1987"}, "[2]": {"tested_on": "sebaceous gland", "details": "topical, male fuzzy rat, Ye 1997"}, "[3]": {"molecular_target": "T1, aromatase (Homo sapiens, UniProt P11511)", "T1 sequence (P11511 1-503)": "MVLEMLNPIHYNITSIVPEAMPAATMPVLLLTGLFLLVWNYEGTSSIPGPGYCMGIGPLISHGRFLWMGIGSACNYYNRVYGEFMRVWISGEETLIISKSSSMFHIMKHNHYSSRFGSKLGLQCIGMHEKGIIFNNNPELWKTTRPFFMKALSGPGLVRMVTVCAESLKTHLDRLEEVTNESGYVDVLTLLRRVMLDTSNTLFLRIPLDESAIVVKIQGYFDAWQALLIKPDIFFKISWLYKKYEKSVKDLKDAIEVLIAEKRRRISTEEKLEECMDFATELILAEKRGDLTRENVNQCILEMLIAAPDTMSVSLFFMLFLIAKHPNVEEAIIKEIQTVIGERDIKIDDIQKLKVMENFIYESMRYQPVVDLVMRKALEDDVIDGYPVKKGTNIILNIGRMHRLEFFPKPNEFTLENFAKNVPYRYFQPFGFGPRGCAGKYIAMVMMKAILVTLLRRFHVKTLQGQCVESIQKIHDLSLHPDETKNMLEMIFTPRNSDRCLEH", "details": "described in the literature"}, "[4]": {"tested_on": "5-alpha-reductase", "details": "described in the literature, higher concentrations"}}, "data": [{"molecule": "CCN(CC)C(=O)[C@H]1CC[C@H]2[C@@H]3CC[C@H]4N(C)C(=O)CC[C@]4(C)[C@H]3CC[C@]12C", "note": "[Example 4-MA, 17-beta-N,N-diethylcarbamoyl-4-methyl-4-aza-5-alpha-androstan-3-one]", "values": [{"measurement": "signs of boldness", "setting": "[1]", "value": "did not have any signs of a boldness"}]}, {"molecule": "CC(C)(C)NC(=O)[C@H]1CC[C@H]2[C@@H]3CC[C@H]4NC(=O)C=C[C@]4(C)[C@H]3CC[C@]12C", "note": "[Finasterid, N-tert-butyl-3-oxo-4-aza-5α-androst-1-ene-17-β-carboxamide]", "values": [{"measurement": "effect in the sebaceous gland model compared with MK 386", "setting": "[2]", "value": "little more effective than MK 386"}, {"measurement": "effect in the sebaceous gland model compared with RU58841", "setting": "[2]", "value": "much lower effects"}]}, {"molecule": "C[C@]12CCC(=O)C(O)=C1CC[C@@H]1[C@@H]2CC[C@]2(C)C(=O)CC[C@@H]12", "note": "[4-hydroxyandrostendione, 4-hydroxyandrost-4-ene-3,17-dione]", "values": [{"measurement": "critical concentration for aromatase", "setting": "[3]", "value": "about 3 nano mole/L"}, {"measurement": "concentration that can also inhibit 5-alpha-reductase", "setting": "[4]", "value": 3, "unit": "micro mole/L"}]}, {"molecule": "CC(C)CCC[C@@H](C)[C@H]1CC[C@H]2[C@@H]3[C@@H](C)C[C@H]4N(C)C(=O)CC[C@]4(C)[C@H]3CC[C@]12C", "note": "[MK 386, 4,7-beta-dimethyl-4-azacholestane-3-one]", "values": [{"measurement": "effect in the sebaceous gland model compared with RU58841", "setting": "[2]", "value": "much lower effects"}]}]}
